A word on the IC50: it is the concentration needed to halve the response being measured. Read a high IC50 as a need for much substance.

The test system of the test is P. falciparum 3D7 growth, pLDH absorbance. Description: blood-stage malaria parasite growth potency – strain 3D7, dose response (AID 2305).
`COc1ccc(-c2ccc(NC(=O)c3ccccc3)cc2)cc1CN1CCCN(C)CC1`: the IC50 stood at 910 nM.
As for `Fc1ccc(CN2CCN(c3ncnc4cc(-c5ccccc5)sc34)CC2)cc1`, the figure is 1020 nM; as for `CS(=O)(=O)CCNCc1nc(-c2ccc3c(Nc4ccc(Oc5ccccn5)cc4)ccnc3c2)cs1`, 680 nM; as for `CCC[C@@H]([C@@H](CC(C)C)C(=O)N[C@@H](CCCCNC(=O)OCc1ccccc1)C(=O)Nc1ncccn1)N(O)C=O`, 60 nM.
As for `CN1CCc2ccc(NC(=O)Nc3ccc(Cl)c(Cl)c3)cc2C1`, the figure is 720 nM; as for `CC(C)(C(=O)Nc1ccc(C2CCC(NCC3CC3)CC2)c(Cl)c1)c1cccc(OC(F)F)c1` (configuration not stated), 970 nM; as for `COc1ccc2nccc([C@@H](O)CN3CCC(NCc4ccc5nc[nH]c(=O)c5c4)CC3)c2c1`, 920 nM.
On to `N#CCSc1nnc(-c2ccccc2)c2ccccc12`, for which the IC50 amounted to 720 nM.
With `CC(C)(C)c1ccc(CNCC(C)(C)c2nc(-c3ccc(Cl)c(O)c3)c(-c3ccnc(N)n3)[nH]2)cc1`, the IC50 was 700 nM.
As for `Cc1ccc2nc(/C=C/c3cccc4cc[nH]c34)[nH]c2c1`, the figure is 1180 nM; as for `Cc1[nH]c2cc(Cl)ccc2c1C1=CCN(CCCCC2(C)C(=O)Nc3ccccc32)CC1` (configuration not stated), 330 nM.
Next, `COc1ccc2nc(Nc3nc(-c4ccccn4)cs3)sc2c1`: 1120 nM; `CCCCCCNC(=O)C1Cc2c([nH]c3ccc(C)cc23)C2(CCN(Cc3ccccc3)CC2)N1` (configuration not stated): 980 nM.
As for `COc1nc2c(CCN3CC[C@@H](NCc4cc(C#N)c5c(c4)CCO5)[C@@H](O)C3)ccnc2cc1F`, the figure is 1030 nM; as for `O=C(/C=C/c1ccc(Cl)c(Cl)c1)NC1[C@@H]2CC[C@H]1CC(CN1CCC(c3c[nH]c4ccccc34)CC1)C2` (some centres not stated), 200 nM; as for `O=[N+]([O-])c1cccc(NC(=S)N2CCCN(Cc3ccc(Cl)cc3Cl)CC2)c1`, 930 nM.
`O=C(Cc1cnc[nH]1)Nc1cccc(-c2ccc(-c3nc4ccccc4[nH]3)cc2)c1` returned an IC50 of 760 nM.
In the case of `O=C(NC1CCN(Cc2ccccc2O)C1)c1cccc(C(F)(F)F)c1` (configuration not stated), the IC50 was found to be 730 nM.
As for `CC(C)COc1ccc(Cl)cc1Cc1ccc(-c2nc3ccc(N4CCN(C)CC4)cc3[nH]2)o1`, the figure is 950 nM.
As for `COc1ccc(NS(=O)(=O)c2cccc(C(=O)Nc3ccc(C(F)(F)F)cc3)c2)cc1N1CCN(CC(C)C)CC1`, the figure is 840 nM.
As for `CNC(=O)c1cc(S(=O)(=O)Nc2ccc(OC)cc2)cs1`, the figure is 1130 nM; as for `CCc1cn2c3c(cc(C(=O)N[C@@H](Cc4ccccc4)[C@H](O)CNC4CC4)cc13)N(CC)S(=O)(=O)CC2`, 110 nM; as for `COc1ccc(-c2ccccc2OCCCNc2nc(NCCc3ccc(O)cc3)nc(N3CCNCC3)n2)cc1`, 790 nM.
`CN(CCN)Cc1cccc(-c2cccc(-c3nc4ccc(F)cc4[nH]3)c2)c1` had an IC50 of 790 nM.
Take `CCC(ON1C(N)=NC(N)=NC1(C)C)c1ccccc1` (configuration not stated): the IC50 worked out at 30 nM.
Next, `Cc1ccccc1OCC(O)CN1CCC(C2CCN(CC(O)COc3ccccc3C)CC2)CC1` (configuration not stated): 310 nM; `CN1CCN(c2ccc3nc(-c4ccc5nc(-c6ccc(O)cc6)[nH]c5c4)[nH]c3c2)CC1`: 120 nM.
Next, `CC1=C(C(=O)OCCOCc2ccccc2)C(c2ccccc2C(F)(F)F)C(C(=O)OCCOCc2ccccc2)=C(C)N1`: 530 nM; `O=C(Nc1ccc(CN2CCOCC2)cc1)c1ccc(-c2cc(Cl)ccc2Cl)o1`: 610 nM.
Next, `COc1ccc(CNC2CCN(C)CC2)cc1-c1ccc(S(=O)(=O)NC2CCC2)c(F)c1`: 840 nM; `Cc1cccc2[nH]c(-c3ccc(-c4cccc(NC(=O)COc5ccccc5C(N)=O)c4)s3)nc12`: 730 nM.
Compound `Cc1cc(Nc2ccncc2)n2nc(C)c(-c3ccc(Cl)cc3)c2n1` returned an IC50 of 160 nM.
As for `Cc1ccc(/C=C/C(=O)NCCCCCN2CCN(C(=O)Nc3ccc(Cl)c(C(F)(F)F)c3)CC2)cc1`, the figure is 1110 nM; as for `COc1cc(NC(=O)/C=C/c2cc(F)cc(F)c2F)cc(OCCN2CCCCC2)c1`, 150 nM; as for `O=C(/C=C/c1ccc(-c2nc3cc(F)c(F)cc3[nH]2)cc1)NCc1ccc(Cl)c(Cl)c1`, 940 nM.
Next, `Cc1ccc(NC(=O)Cc2noc(CC3CCCN3C(=O)N[C@@H](C)c3ccccc3)n2)cc1` (some centres not stated): 370 nM; `Cc1cccc(CN2CCC(Oc3ccc(NC(=O)c4cccs4)cc3Cl)CC2)n1`: 840 nM.
As for `Cc1c(-c2ccc3c(c2)C(NCCCN2CCCCC2)CC3)cnc(N)c1C` (configuration not stated), the figure is 1110 nM; as for `CC1=C(C(=O)Nc2cc3cn[nH]c3cc2F)C(c2cccc(O)c2F)CC(=O)N1` (configuration not stated), 630 nM; as for `CCCCCCCN1CC[C@@H](CCC(O)c2ccnc3ccc(OC)cc23)[C@@H](CC)C1` (some centres not stated), 750 nM.
With `Cc1ccc(Oc2cnn(C)c(=O)c2Nc2cccc(C(=O)NCCc3ccccn3)c2)c(C)c1`, the IC50 turned out to be 490 nM.
Next, `O=C(NCCCCN1CCN(c2cccc3c2CCCC3)CC1)c1ccc(NC(=O)c2ccc(Cl)cc2)cc1`: 450 nM; `COc1ccc2ncc(F)c([C@H](O)CN3CCC(NCc4cc5c(cn4)OCCO5)CC3)c2c1`: 290 nM.
As for `CN(CCCCN)Cc1ccc(-c2ccc(Cl)cc2)cc1`, the figure is 880 nM; as for `O=C(NC1CCC(CN2CCC(c3c[nH]c4ccccc34)CC2)CC1)c1cc(-c2ccccc2)c(C(F)(F)F)s1` (configuration not stated), 170 nM.
As for `N#Cc1ccc2c(c1)CN(CCC1CCC(NC(=O)c3cc4ccccc4cc3N)CC1)CC2` (configuration not stated), the figure is 1040 nM.
Compound `CN1CC[C@H](N(Cc2ccccc2F)c2ccc(C#N)c(Cl)c2)C1` displayed an IC50 of 1270 nM.
Next, `Fc1cc(Cl)ccc1Nc1ccnc2cc(-c3scnc3CNCCN3CCOCC3)ccc12`: 850 nM.
As for `O=[N+]([O-])c1cccc(-c2ccc(C=NNc3cc(N4CCCC4)nc(N4CCCC4)n3)o2)c1`, the figure is 710 nM; as for `COc1cc(Cc2cnc(N)nc2N)cc(OCCCC(=O)O)c1OC`, 1180 nM.
`Cc1nc(-c2ccc(-c3ccc(NC(=O)c4coc5ccc(N6C[C@@H](C)N(C)[C@@H](C)C6)cc45)cc3)c(C)c2)no1` came in with an IC50 of 770 nM.
Next, `O=[N+]([O-])c1ccccc1C=NNc1ccnc2ccccc12`: 860 nM; `Cc1nc(N)nc(N)c1CCCOc1ccccc1Cl`: 220 nM.
As for `c1cc(Cc2ccc(Nc3c4ccccc4nc4ccccc34)cc2)cc(Nc2c3ccccc3nc3ccccc23)c1`, the figure is 140 nM.
As for `Cc1sc(CNCCCNc2cc(=O)c3ccccc3[nH]2)c(C(F)(F)F)c1C`, the figure is 730 nM; as for `NC1CCN(CCc2ccc(NS(=O)(=O)c3cccc4ccccc34)cc2)CC1`, 1700 nM.
`Cc1cc(C(F)(F)F)n2nc(C(=O)N(Cc3cncn3Cc3cccc(F)c3)CC3CC3)cc2n1` gave an IC50 of 740 nM.
Next, `N#Cc1ccc(-c2cnc3ccc(NCc4ccc(S(N)(=O)=O)cc4)nn23)cc1`: 780 nM; `Cc1cccc2[nH]c(-c3cccc(-c4ccc(CNCCCN5CCCC5=O)cc4)c3)nc12`: 960 nM; `CC(CN(C)C)C(=O)Nc1ccc(-c2ccc(-c3nc4ccccc4[nH]3)s2)cc1` (configuration not stated): 720 nM.
Next, `CS(=O)(=O)NCCCNCc1ccc(-c2ccc(-c3nc4ccc(F)cc4[nH]3)cc2)cc1`: 930 nM; `Cc1nc(C)c(CC(=O)Nc2cccc(-c3cccc(-c4nc5ccc(C(F)(F)F)cc5[nH]4)c3)c2)s1`: 830 nM; `COCCNCc1cccc(C#Cc2cc3ncnc(Nc4ccc(OCc5cccc(F)c5)c(Cl)c4)c3s2)n1`: 740 nM.
Next, `OC(CNc1ccnc(Nc2ccccc2)n1)c1ccc(C(F)(F)F)cc1` (configuration not stated): 610 nM; `Cc1cccc(C(=O)NC(NC(=S)Nc2cc(Cl)ccc2Cl)C(Cl)(Cl)Cl)c1` (configuration not stated): 1270 nM; `CCc1nc2nc(C)cc(Nc3cc(C)cc(C)c3)n2n1`: 290 nM.
For the compound `COc1ccc(-c2ccc(NC(=O)c3cccc(Cl)c3)cc2)cc1CN1CCCC1`, the IC50 amounted to 710 nM.
Next, `CCn1c(-c2nonc2N)nc2c(-c3cccc(NC(=O)Nc4ccc5c(c4)CCC5)c3)ncc(OCCCN)c21`: 780 nM; `C[C@@H](COc1ccccc1)NCC(O)c1ccc([N+](=O)[O-])c(OCc2ccccc2)c1` (some centres not stated): 990 nM; `O=c1[nH]c2ccc3[nH]cccc3c2c1C=Nc1ccc(Cn2ccnc2)cc1`: 660 nM.
As for `Cc1nc(-c2cccc3c(NC(=O)Nc4ccc5nccc(N6CCN(C)CC6)c5c4)cccc23)no1`, the figure is 230 nM.
As for `CC1(C)N=C(N)N=C(N)N1c1cccc(C(F)(F)F)c1`, the figure is 10 nM; as for `NC(N)=NN=CC(=O)Nc1ccc(C(F)(F)F)cc1`, 930 nM.
Compound `COc1ccc(CN2CCCN(Cc3cccc(C(=O)Nc4ccc(C)c(F)c4)c3)CC2)cc1` showed an IC50 of 1310 nM.
As for `Cc1cc(N2CCCC2)nc(Nc2ccc(NC(=O)C(C)C)cc2)n1`, the figure is 1100 nM.
As for `CN(C)CCOc1cc(NC(=O)Nc2cccc([N+](=O)[O-])c2)ccc1I`, the figure is 740 nM.
Next, `COc1ccc(OC)c2c1C[C@@H]1NC[C@H]2c2c(OC)ccc(OC)c21`: 970 nM; `O=C(Nc1cccc(-c2cccc(-c3nc4ccccc4[nH]3)c2)c1)Nc1ccc(F)c(F)c1F`: 60 nM.
For `OC(CNCCCCCCNCC(O)c1ccc(Cl)c(Cl)c1)c1ccc(Cl)c(Cl)c1` (configuration not stated), the IC50 amounted to 910 nM.
Next, `CC(C)CCNC(=O)c1cc(C(=O)c2cc(F)ccc2O)cn(CCC(C)C)c1=O`: 750 nM; `Cc1cnc(C(=O)Nc2ccc3c(c2)CCCN(Cc2c[nH]c4cnccc24)C3)cn1`: 1230 nM; `CC(C)CCN(Cc1cncn1Cc1ccccc1F)C(=O)c1cncc(-c2ccccc2)c1`: 790 nM.
As for `COc1ccc(N2C(=O)C3C(C2=O)C2(C)c4ccccc4C3(C)c3ccccc32)c([N+](=O)[O-])c1` (configuration not stated), the figure is 720 nM; as for `Nc1nc(N)c2c(ccc3nn(Cc4cccnc4)cc32)n1`, 360 nM; as for `CN(C)S(=O)(=O)c1ccc(N2CCN(CCC3(c4cccc(F)c4)CCN(C(=O)C(C)(C)C)CC3)CC2)c2nonc12`, 700 nM.
Next, `COc1ccc(CN2CCC(C(=O)Nc3cccc(-c4cccc(Cl)c4)c3)CC2)cc1O`: 970 nM; `c1ccc(CN2CCCN(c3ccc4c(c3)CCN(Cc3ccc(-c5ncc[nH]5)cc3)CC4)CC2)cc1`: 760 nM.
